Measurements from PubChem BioAssay AID248 (DTP/NCI, 2004).
Toxic doses and inconclusive results are not listed. Rule as the data show it: active = T/C of 150% or more; inactive = T/C below 125%.

System: L1210 leukemia ip in BDF1 mice, survival T/C
Assay: NCI In Vivo Anticancer Drug Screen. Data for tumor model L1210 Leukemia (intraperitoneal) in B6D2F1 (BDF1) mice
Conditions: endpoint: mean survival time, higher = longer survival
Method in brief: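 Transplantable tumor model; survival measured in treated vs vehicle control mice. Value = treated/control.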

[1] = dose: 100.0 mg/kg/injection, schedule: Q01DX001 (ip), vehicle: saline
[2] = dose: 200.0 mg/kg/injection, schedule: Q01DX001 (ip), vehicle: saline
[3] = dose: 400.0 mg/kg/injection, schedule: Q01DX001 (ip), vehicle: saline
[4] = dose: 12.5 mg/kg/injection, schedule: Q01DX009 (ip), vehicle: saline with Tween-80
[5] = dose: 100.0 mg/kg/injection, schedule: Q04DX002 (ip), vehicle: Klucel (hydroxypropylcellulose) (HPC)

Measured: T/C

CCCc1ccccc1NC1=NCCO1
inactive: dose: 50.0 mg/kg/injection, schedule: Q04DX002 (ip), vehicle: saline with Tween-80 98 % of control | dose: 100.0 mg/kg/injection, schedule: Q04DX002 (ip), vehicle: saline with Tween-80 95 % of control | dose: 100.0 mg/kg/injection, schedule: Q04DX003 (ip), vehicle: saline with Tween-80 90 % of control | dose: 200.0 mg/kg/injection, schedule: Q04DX002 (ip), vehicle: saline with Tween-80 92 % of control | dose: 200.0 mg/kg/injection, schedule: Q04DX003 (ip), vehicle: saline with Tween-80 87 % of control | dose: 400.0 mg/kg/injection, schedule: Q04DX002 (ip), vehicle: saline with Tween-80 88 % of control | dose: 400.0 mg/kg/injection, schedule: Q04DX003 (ip), vehicle: saline with Tween-80 89 % of control

O=C(O)c1ccc(Br)c2ccccc12
inactive: dose: 75.0 mg/kg/injection, schedule: Q01DX001 (ip), vehicle: carboxymethylcellulose (CMC) 95 % of control | dose: 150.0 mg/kg/injection, schedule: Q01DX001 (ip), vehicle: carboxymethylcellulose (CMC) 98 % of control

C/C(=C(/SS/C(C(=O)O)=C(/C)c1cccc(O)c1)C(=O)O)c1cccc(O)c1
inactive: [1] 97 % of control | [2] 97 % of control | [3] 97 % of control

C[C@H]1CP(c2ccccc2)(c2ccccc2)(c2ccccc2)O[C@@]1(C(=O)c1ccccc1)c1ccccc1
inactive: dose: 12.5 mg/kg/injection, schedule: Q04DX003 (ip), vehicle: saline with Tween-80 100 % of control | dose: 25.0 mg/kg/injection, schedule: Q04DX003 (ip), vehicle: saline with Tween-80 100 % of control | dose: 50.0 mg/kg/injection, schedule: Q04DX003 (ip), vehicle: saline with Tween-80 94 % of control

CC(C)C1CCC2(CC1)CC(=O)N(CCC[N+](C)(C)C)C(=O)C2
inactive: dose: 50.0 mg/kg/injection, schedule: Q01DX001 (ip), vehicle: carboxymethylcellulose (CMC) 96 % of control

Cc1cccc(C)c1NC(=O)Oc1ccc(Cl)cc1Cc1ccccc1
inactive: dose: 100.0 mg/kg/injection, schedule: Q01DX009 (ip), vehicle: Klucel (hydroxypropylcellulose) (HPC) 88 % of control | dose: 200.0 mg/kg/injection, schedule: Q01DX009 (ip), vehicle: Klucel (hydroxypropylcellulose) (HPC) 88 % of control | dose: 400.0 mg/kg/injection, schedule: Q01DX009 (ip), vehicle: Klucel (hydroxypropylcellulose) (HPC) 102 % of control

CO/N=C(/C)C1(O)Cc2c(O)c3c(c(O)c2C(OC2CC(N)C(O)C(C)O2)C1)C(=O)c1c(OC)cccc1C3=O (stereo unspecified)
inactive: dose: 1.0 mg/kg/injection, schedule: Q01DX009 (ip), vehicle: water 109 % of control | dose: 2.0 mg/kg/injection, schedule: Q01DX009 (ip), vehicle: water 109 % of control | dose: 2.0 mg/kg/injection, schedule: Q04DX003 (ip), vehicle: water 101 % of control | dose: 3.12 mg/kg/injection, schedule: Q01DX009 (ip), vehicle: saline with Tween-80 111 % of control | dose: 4.0 mg/kg/injection, schedule: Q01DX009 (ip), vehicle: water 108 % of control | dose: 4.0 mg/kg/injection, schedule: Q04DX003 (ip), vehicle: water 100 % of control | dose: 6.25 mg/kg/injection, schedule: Q01DX009 (ip), vehicle: saline with Tween-80 106 % of control | dose: 8.0 mg/kg/injection, schedule: Q01DX009 (ip), vehicle: water 106 % of control | dose: 8.0 mg/kg/injection, schedule: Q04DX003 (ip), vehicle: water 101 % of control | [4] 106 % of control | dose: 12.5 mg/kg/injection, schedule: Q04DX003 (ip), vehicle: saline 95 % of control | dose: 125.0 micrograms/kg/injection, schedule: Q04DX003 (ip), vehicle: water 100 % of control | dose: 250.0 micrograms/kg/injection, schedule: Q04DX003 (ip), vehicle: water 101 % of control | dose: 500.0 micrograms/kg/injection, schedule: Q04DX003 (ip), vehicle: water 97 % of control | dose: 1000.0 micrograms/kg/injection, schedule: Q04DX003 (ip), vehicle: water 105 % of control | dose: 2000.0 micrograms/kg/injection, schedule: Q04DX003 (ip), vehicle: water 102 % of control

c1ccc2cc3c(cc2c1)Nc1ccncc1N3
inactive: [4] 106 % of control | dose: 25.0 mg/kg/injection, schedule: Q01DX009 (ip), vehicle: saline with Tween-80 103 % of control | dose: 50.0 mg/kg/injection, schedule: Q01DX009 (ip), vehicle: saline with Tween-80 100 % of control

N#CCC(N)=C(C#N)C#N
inactive: dose: 100.0 mg/kg/injection, schedule: Q01DX001 (ip), vehicle: carboxymethylcellulose (CMC) 94 % of control | dose: 100.0 mg/kg/injection, schedule: Q01DX Z (ip), vehicle: carboxymethylcellulose (CMC) 94 % of control | dose: 200.0 mg/kg/injection, schedule: Q01DX001 (ip), vehicle: carboxymethylcellulose (CMC) 103 % of control

Cn1c(=N)ccn(C2OC(CO)C(O)C2O)c1=O (stereo unspecified) (tested in a mixture with another compound)
inactive: [1] 106 % of control | [2] 106 % of control | [3] 107 % of control

S=C1NC(c2ccc(Cl)cc2)N2C(=S)NC(c3ccc(Cl)cc3)N12 (stereo unspecified)
inactive: dose: 100.0 mg/kg/injection, schedule: Q01DX009 (ip), vehicle: gum acacia 98 % of control | dose: 100.0 mg/kg/injection, schedule: Q04DX003 (ip), vehicle: gum acacia 104 % of control | dose: 200.0 mg/kg/injection, schedule: Q01DX009 (ip), vehicle: gum acacia 93 % of control | dose: 200.0 mg/kg/injection, schedule: Q04DX003 (ip), vehicle: gum acacia 101 % of control | dose: 400.0 mg/kg/injection, schedule: Q04DX003 (ip), vehicle: gum acacia 98 % of control

CCC(=O)NC1Cc2cc(C)cc(C)c21 (stereo unspecified)
inactive: dose: 25.0 mg/kg/injection, schedule: Q04DX002 (ip), vehicle: Klucel (hydroxypropylcellulose) (HPC) 113 % of control | dose: 50.0 mg/kg/injection, schedule: Q04DX002 (ip), vehicle: Klucel (hydroxypropylcellulose) (HPC) 92 % of control | [5] 100 % of control

CCCCCCCCCCCCCCCCCC[n+]1cccc(C#N)c1
inactive: dose: 5.0 mg/kg/injection, schedule: Q01DX009 (ip), vehicle: saline 98 % of control | dose: 10.0 mg/kg/injection, schedule: Q01DX001 (ip), vehicle: saline 93 % of control | dose: 10.0 mg/kg/injection, schedule: Q01DX009 (ip), vehicle: saline 92 % of control | dose: 10.0 mg/kg/injection, schedule: Q04DX003 (ip), vehicle: saline 105 % of control | dose: 20.0 mg/kg/injection, schedule: Q01DX001 (ip), vehicle: saline 91 % of control | dose: 20.0 mg/kg/injection, schedule: Q04DX003 (ip), vehicle: saline 97 % of control | dose: 40.0 mg/kg/injection, schedule: Q01DX001 (ip), vehicle: saline 91 % of control | dose: 40.0 mg/kg/injection, schedule: Q04DX003 (ip), vehicle: saline 114 % of control

C=C(C)C1CCC2(C=O)CCC3(C)C(CCC4C5(C)CCC(O)C(C)(C)C5CCC43C)C12 (stereo unspecified)
inactive: dose: 18.75 mg/kg/injection, schedule: Q01DX009 (ip), vehicle: Klucel (hydroxypropylcellulose) (HPC) 100 % of control | dose: 37.5 mg/kg/injection, schedule: Q01DX009 (ip), vehicle: Klucel (hydroxypropylcellulose) (HPC) 93 % of control | dose: 75.0 mg/kg/injection, schedule: Q01DX009 (ip), vehicle: Klucel (hydroxypropylcellulose) (HPC) 89 % of control

COc1ccccc1CN1CCCN(Cc2ccccc2OC)C1c1cc(Br)ccc1O
inactive: dose: 50.0 mg/kg/injection, schedule: Q01DX001 (ip), vehicle: saline 95 % of control | [1] 103 % of control | [2] 103 % of control | [3] 103 % of control

O=S(=O)(C#Cc1ccccc1)c1ccccc1
inactive: [5] 89 % of control

Cn1c(=O)cc(C=Nc2ccc(O)cc2)c2ccccc21
inactive: [1] 94 % of control | [2] 98 % of control

O=C(O)CCc1c2ccc(=O)cc-2oc2cc(O)ccc12
inactive: dose: 100.0 mg/kg/injection, schedule: Q04DX003 (ip), vehicle: Klucel (hydroxypropylcellulose) (HPC) 91 % of control | dose: 200.0 mg/kg/injection, schedule: Q04DX003 (ip), vehicle: Klucel (hydroxypropylcellulose) (HPC) 91 % of control | dose: 400.0 mg/kg/injection, schedule: Q04DX003 (ip), vehicle: Klucel (hydroxypropylcellulose) (HPC) 92 % of control

COC(=O)CCC(C)C1CCC2(C)C3=C(C(=O)CC12C)C1(C)CCC(O)C(C)(C)C1=C(O)C3 (stereo unspecified)
inactive: dose: 100.0 mg/kg/injection, schedule: Q04DX003 (ip), vehicle: saline 91 % of control | dose: 200.0 mg/kg/injection, schedule: Q04DX003 (ip), vehicle: saline 93 % of control | dose: 400.0 mg/kg/injection, schedule: Q04DX003 (ip), vehicle: saline 91 % of control
